Measured values as given in patent US20140343095A1, “Methods of Diagnosing and Treating Multiple Sclerosis” (The Brigham and Women's Hospital, Inc., priority 2009, published 2014).

Legend:
TLR2 = assay: PARP-1 activity in HEK-293 cells transfected or not with TLR2; assay type: cell-based, human
Excerpt: FIGS. 6A-B are bar graphs showing that PARP-1 activation by 15-HC is mediated by TLR2 A. TLR2 blocking antibody abrogates PARP-1 activation by 15a-HC. 6A, a set of three bar graphs showing PARP-1 activity in microglia, macrophages or astrocytes activated with 15-HC in the presence of blocking antibodies to TLR2 or TLR4, or isotype controls (Mean±SEM). 6B, a bar graph showing PARP-1 activity in HEK-293 cells transfected or not with a plasmid coding for TLR2 and activated with 15-HC (Mean±SEM).

human monocytes = assay: TNFa and CCL2 production by human monocytes; assay type: cell-based; details: 1 ug/ml 15-HC
Procedure: FIGS. 10A and 10B are bar graphs showing TLR2 mediated activation of PARP-1 by 15-HC. PARP-1 enzymatic activity (10A) and TNFalpha and CCL2 (10B) of PBMCs incubated with 15-HC alone, or in combination with AIQ, blocking antibodies to TLR2 or IC control.
To investigate whether the TLR2/PARP-1 axis is functional in human we activated PBMCs from healthy controls with 15-HC, in the presence or not of PARP-1 or TLR2 inhibitors. […] Thus, 15-HC activates PARP-1 in human monocytes by a TLR2 dependent pathway that results in the release of the pro-inflammatory mediators TNFa and CCL2.

15-hydroxycholestene [15-HC] was tested, and the “PARP-1 activity in HEK-293 cells transfected with TLR2” value (TLR2; transfected with a plasmid coding for TLR2) was “significant activation”, the “PARP-1 activity in HEK-293 cells” value (TLR2; untransfected, does not express TLR2) was “no significant effect” and the “production of TNFa and CCL2” value (human monocytes) was “resulted in production”.
